Data published in patent publication US20240368121A1, “ESTROGEN RECEPTOR DEGRADERS, PHARMACEUTICAL COMPOSITIONS THEREOF, AND THEIR THERAPEUTIC APPLICATIONS” (BioTheryX, Inc., priority 2021, published 2024).

Legend:
Assay type in all cases: cell-based
MCF7 cells = assay: Cell viability assay ([…]-GLO, 6-day treatment); conditions: Homo sapiens, MCF7, 144 h; MCF-7 cells, 6 days, CTG; read-out: Inhibition of Cancerous Cells IC50 MCF-7
In short: (§1)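 MCF7 (MEM) and T47D (RPMI with insulin), both with 10% FBS, at 1,000 cells/well, treated with a 10-point compound dose series for 6 days, with medium and compound refreshed once. Viability read by CellTiter-Glo luminescence.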

T47D cells = assay: Cell viability assay ([…]-GLO, 6-day treatment); conditions: Homo sapiens, 144 h, 6 days, CTG, read-out: Inhibition of Cancerous Cells IC50 T47D
In short: as §1

ERα = biological target: T1, ERα (Homo sapiens, UniProt P03372); assay: Protein degradation assay: ERα in MCF-7 cells via western blot; conditions: 6 h; for ERα Protein Degradation 1 nM: 1 nM compound; for ERα Protein Degradation 10 nM: 10 nM compound; for ERα Protein Degradation 100 nM: 100 nM compound
T1 construct: degrading an ERα in MCF-7 cells via a western blot; endogenous in cells; host or cells: MCF-7
T1 sequence (P03372 1-595): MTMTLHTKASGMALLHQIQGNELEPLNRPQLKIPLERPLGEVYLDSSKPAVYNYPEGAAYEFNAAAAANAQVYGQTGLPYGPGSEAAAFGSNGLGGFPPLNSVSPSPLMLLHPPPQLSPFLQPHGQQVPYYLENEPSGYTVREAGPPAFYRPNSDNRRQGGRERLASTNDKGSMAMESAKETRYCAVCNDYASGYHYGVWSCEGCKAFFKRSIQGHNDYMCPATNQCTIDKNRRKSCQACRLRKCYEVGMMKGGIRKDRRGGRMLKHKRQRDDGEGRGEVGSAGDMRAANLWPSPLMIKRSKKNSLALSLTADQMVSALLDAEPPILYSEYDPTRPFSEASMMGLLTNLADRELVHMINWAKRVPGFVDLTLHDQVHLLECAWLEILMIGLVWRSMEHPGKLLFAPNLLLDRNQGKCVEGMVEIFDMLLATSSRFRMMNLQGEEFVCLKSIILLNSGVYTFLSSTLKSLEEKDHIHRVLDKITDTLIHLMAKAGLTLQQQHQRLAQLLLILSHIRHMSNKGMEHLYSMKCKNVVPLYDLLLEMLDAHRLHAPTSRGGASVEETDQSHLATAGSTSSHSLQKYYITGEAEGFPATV
In short: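 MCF-7 cells in MEM/10% FBS with insulin, seeded 300,000/well, treated 6 h at set concentrations (e.g., 1 nM–1 μM). Whole-cell lysates immunoblotted for ERα with GAPDH loading control, chemiluminescent detection; percentage degradation reported in binned categories (≥50%, 25–50%, 10–25%, <10%).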

| Compound | IC50 (MCF7 cells) [nM] | IC50 (T47D cells) [nM] | ERα Protein Degradation 1 nM (ERα) | ERα Protein Degradation 10 nM (ERα) | ERα Protein Degradation 100 nM (ERα) |
| --- | --- | --- | --- | --- | --- |
| O=C1CCC(c2ccc(OCC(=O)N3CCN(CCCCOc4ccc([C@@H]5c6ccc(O)cc6CC[C@@H]5c5ccccc5)cc4)CC3)cc2)C(=O)N1 (stereo partly drawn) [Compound B6, 3-(4-(2-(4-(4-(4-((1R,2S)-6-hydroxy-2-phenyl-1,2,3,4-tetrahydronaphthalen-1-yl)phenoxy)butyl)piperazin-1-yl)-2-oxoethoxy)phenyl)piperidine-2,6-dione] | 0.22 | 0.18 | C (a percentage degradation value of less than 25% and no less than 10%) | C (a percentage degradation value of less than 25% and no less than 10%) | C (a percentage degradation value of less than 25% and no less than 10%) |
| O=C1CCN(c2cccc(OCC(=O)N3CCN(CCCCOc4ccc([C@@H]5c6ccc(O)cc6CC[C@@H]5c5ccccc5)cc4)CC3)c2)C(=O)N1 [Compound B9, 1-(3-(2-(4-(4-(4-((1R,2S)-6-hydroxy-2-phenyl-1,2,3,4-tetrahydronaphthalen-1-yl)phenoxy)butyl)piperazin-1-yl)-2-oxoethoxy)phenyl)dihydropyrimidine-2,4(1H,3H)-dione] | 1.7 | 0.49 | D (a percentage degradation value of less than 10%) | D (a percentage degradation value of less than 10%) | D (a percentage degradation value of less than 10%) |
| O=C1CCN(c2ccc(OCC(=O)N3CCN(CCCCOc4ccc([C@@H]5c6ccc(O)cc6CC[C@@H]5c5ccccc5)cc4)CC3)cc2)C(=O)N1 [Compound B10, 1-(4-(2-(4-(4-(4-((1R,2S)-6-hydroxy-2-phenyl-1,2,3,4-tetrahydronaphthalen-1-yl)phenoxy)butyl)piperazin-1-yl)-2-oxoethoxy)phenyl)dihydropyrimidine-2,4(1H,3H)-dione] | 1.6 | 0.76 | D (a percentage degradation value of less than 10%) | D (a percentage degradation value of less than 10%) | D (a percentage degradation value of less than 10%) |
| O=C1CCC(Nc2cccc(N3CCN(CC4CCN(c5ccc([C@@H]6c7ccc(O)cc7CC[C@@H]6c6ccccc6)cc5)CC4)CC3)c2)C(=O)N1 (stereo partly drawn) [Compound B13, 3-((3-(4-((1-(4-((1R,2S)-6-hydroxy-2-phenyl-1,2,3,4-tetrahydronaphthalen-1-yl)phenyl)piperidin-4-yl)methyl)piperazin-1-yl)phenyl)amino)piperidine-2,6-dione] | 16 | 4.6 | D (a percentage degradation value of less than 10%) | D (a percentage degradation value of less than 10%) | D (a percentage degradation value of less than 10%) |
| O=C1CCC(Nc2cccc(NC3CCN(CC4CCN(c5ccc([C@@H]6c7ccc(O)cc7CC[C@@H]6c6ccccc6)cc5)CC4)CC3)c2)C(=O)N1 (stereo partly drawn) [Compound B14, 3-((3-((1-((1-(4-((1R,2S)-6-hydroxy-2-phenyl-1,2,3,4-tetrahydronaphthalen-1-yl)phenyl)piperidin-4-yl)methyl)piperidin-4-yl)amino)phenyl)amino)piperidine-2,6-dione] | 0.73 | 1.2 | D (a percentage degradation value of less than 10%) | D (a percentage degradation value of less than 10%) | D (a percentage degradation value of less than 10%) |
| O=C1CCC(Nc2cccc(OCC(=O)N3CCN(CC4CCN(c5ccc([C@@H]6c7ccc(O)cc7CC[C@@H]6c6ccccc6)cc5)CC4)CC3)c2)C(=O)N1 (stereo partly drawn) [Compound B16, 3-((3-(2-(4-((1-(4-((1R,2S)-6-hydroxy-2-phenyl-1,2,3,4-tetrahydronaphthalen-1-yl)phenyl)piperidin-4-yl)methyl)piperazin-1-yl)-2-oxoethoxy)phenyl)amino)piperidine-2,6-dione] | 5 | 2.6 | C (a percentage degradation value of less than 25% and no less than 10%) | C (a percentage degradation value of less than 25% and no less than 10%) | C (a percentage degradation value of less than 25% and no less than 10%) |
| O=C1CCC(Nc2cccc(NC(=O)CN3CCN(CC4CCN(c5ccc([C@@H]6c7ccc(O)cc7CC[C@@H]6c6ccccc6)cc5)CC4)CC3)c2)C(=O)N1 (stereo partly drawn) [Compound B19, N-(3-((2,6-dioxopiperidin-3-yl)amino)phenyl)-2-(4-((1-(4-((1R,2S)-6-hydroxy-2-phenyl-1,2,3,4-tetrahydronaphthalen-1-yl)phenyl)piperidin-4-yl)methyl)piperazin-1-yl)-acetamide] | 2.5 | 0.96 | D (a percentage degradation value of less than 10%) | D (a percentage degradation value of less than 10%) | D (a percentage degradation value of less than 10%) |
| CN(C(=O)CN1CCN(CC2CCN(c3ccc([C@@H]4c5ccc(O)cc5CC[C@@H]4c4ccccc4)cc3)CC2)CC1)c1cccc(NC2CCC(=O)NC2=O)c1 (stereo partly drawn) [Compound B20, N-(3-((2,6-Dioxopiperidin-3-yl)amino)phenyl)-2-(4-((1-(4-((1R,2S)-6-hydroxy-2-phenyl-1,2,3,4-tetrahydronaphthalen-1-yl)phenyl)piperidin-4-yl)methyl)piperazin-1-yl)-N-methylacetamide] | 5.7 | 0.93 | B (a percentage degradation value of less than 50% and no less than 25%) | C (a percentage degradation value of less than 25% and no less than 10%) | D (a percentage degradation value of less than 10%) |
| CC1(Cc2ccc(OCCCCN3CCN(C(=O)COc4cccc(C5CCC(=O)NC5=O)c4)CC3)cc2)C(c2ccc(O)cc2)=Nc2ccc(O)cc21 (centres unmarked) [Compound D7, 3-(3-(2-(4-(4-(4-((5-Hydroxy-2-(4-hydroxyphenyl)-3-methyl-3H-indol-3-yl)-methyl)phenoxy)butyl)piperazin-1-yl)-2-oxoethoxy)phenyl)piperidine-2,6-dione] | 101 | 44 | D (a percentage degradation value of less than 10%) | D (a percentage degradation value of less than 10%) | D (a percentage degradation value of less than 10%) |
| Cc1c(-c2ccc(O)cc2)n(Cc2ccc(OCCCCN3CCN(C(=O)COc4cccc5c4CN(C4CCC(=O)NC4=O)C5=O)CC3)cc2)c2ccc(O)cc12 (centres unmarked) [Compound E1, 3-(4-(2-(4-(4-(4-((5-hydroxy-2-(4-hydroxyphenyl)-3-methyl-1H-indol-1-yl)-methyl)phenoxy)butyl)piperazin-1-yl)-2-oxoethoxy)-1-oxoisoindolin-2-yl)piperidine-2,6-dione] | 19 | 0.84 | C (a percentage degradation value of less than 25% and no less than 10%) | B (a percentage degradation value of less than 50% and no less than 25%) | B (a percentage degradation value of less than 50% and no less than 25%) |
